Assay results reported in US20130237533A1, “CDK Inhibitors” (G1 THERAPEUTICS, INC., priority 2010, published 2013).
Where two headings read alike, the source gives them in different places.

Target: CDK2/cyclinE (Homo sapiens, UniProt P24941)
Experiment: Caliper LabChip kinase enzymatic assay, CDK2/cyclinE
Format: biochemical
Experimental: Kinase enzymatic reactions were performed in 384-well microplates using a 12-channel Caliper LabChip instrument as a detection device. […] As substrate and product are separated, two peaks of fluorescence are observed. Change in the relative fluorescence intensity of the substrate and product peaks is the parameter measured, reflecting enzyme activity. In the presence of an inhibitor, the ratio between product and substrate is altered. The signal of the product decreases, while the signal of the substrate increases.
Potential inhibitor compounds (as HCl salts) were tested using 12-point dose response curves in single point at the Km, for ATP. The IC50 of each compound was determined using GraphPad Prism.

[1] = Table 2, class symbols, read-out: CDK2/CycE IC50

Row | SMILES | IC50 [1] [nM] | IC50 (enzyme 0.22 nM, (at the Km for ATP), one hour, 12-point dose response, compounds as HCl salts, read-out: CDK2/cyclinE IC50) [nM]
1 | O=C1NCCn2c1cc1cnc(Nc3ccc(N4CCNCC4)cn3)nc12 [Compound 3] | > 100000 | > 100000
2 | CC(C)C1CNC(=O)c2cc3cnc(Nc4ccc(N5CCNCC5)cn4)nc3n21 (centres unmarked) [Compound 8] | 1000 to 100000 | 
3 | CC(C)[C@@H]1CNC(=O)c2cc3cnc(Nc4ccc(N5CCNCC5)cn4)nc3n21 [Compound 9] | 1000 to 100000 | 
4 | CC(C)[C@H]1CNC(=O)c2cc3cnc(Nc4ccc(N5CCNCC5)cn4)nc3n21 [Compound 10] | 1000 to 100000 | 
5 | CC(C)C[C@H]1CNC(=O)c2cc3cnc(Nc4ccc(N5CCN(C)CC5)cn4)nc3n21 [Compound 12] | 1000 to 100000 | 
6 | CC(C)C[C@H]1CNC(=O)c2cc3cnc(Nc4ccc(N5CCNCC5)cn4)nc3n21 [Compound 13] | 1000 to 100000 | 
7 | CCC(C)[C@H]1CNC(=O)c2cc3cnc(Nc4ccc(N5CCN(C)CC5)cn4)nc3n21 (some centres unmarked) [Compound 16] | 1000 to 100000 | 
8 | CCC(C)[C@H]1CNC(=O)c2cc3cnc(Nc4ccc(N5CCNCC5)cn4)nc3n21 (some centres unmarked) [Compound 17] | 1000 to 100000 | 
9 | CC(C)(C)[C@H]1CNC(=O)c2cc3cnc(Nc4ccc(N5CCNCC5)cn4)nc3n21 [Compound 20] | 100 to 1000 | 
10 | CN1C[C@H](C(C)(C)C)n2c(cc3cnc(Nc4ccc(N5CCNCC5)cn4)nc32)C1=O [Compound 21] | 1000 to 100000 | 
11 | CN1CCN(c2ccc(Nc3ncc4cc5n(c4n3)[C@@H](c3ccccc3)CNC5=O)nc2)CC1 [Compound 22] | 1000 to 100000 | 
12 | O=C1NC[C@H](c2ccccc2)n2c1cc1cnc(Nc3ccc(N4CCNCC4)cn3)nc12 [Compound 23] | 100 to 1000 | 
13 | CC(C)[C@H]1Cn2c(cc3cnc(Nc4ccc(N5CCNCC5)cn4)nc32)C(=O)N1 [Compound 24] | 1000 to 100000 | 
14 | CC(C)[C@@H]1Cn2c(cc3cnc(Nc4ccc(N5CCNCC5)cn4)nc32)C(=O)N1 [Compound 25] | 1000 to 100000 | 
15 | CC1(C)CNC(=O)c2cc3cnc(Nc4ccc(N5CCNCC5)cn4)nc3n21 [Compound 26] | 1000 to 100000 | 
16 | CN1CCN(c2ccc(Nc3ncc4cc5n(c4n3)C3(CCCC3)CNC5=O)nc2)CC1 [Compound 29] | 1000 to 100000 | 
17 | O=C1NCC2(CCCC2)n2c1cc1cnc(Nc3ccc(N4CCNCC4)cn3)nc12 [Compound 30] | 1000 to 100000 | 
18 | O=C1NCC2(CCCC2)n2c1cc1cnc(Nc3ccc(N4CCOCC4)cn3)nc12 [Compound 32] | 1000 to 100000 | 
19 | O=C1NCC2(CCCC2)n2c1cc1cnc(Nc3ccc(N4CCOCC4)nn3)nc12 [Compound 33] | 1000 to 100000 | 
20 | O=C1NCC2(CCCC2)n2c1cc1cnc(Nc3ccc(N4CCOCC4)cc3)nc12 [Compound 34] | 10 to 100 | 
21 | CC(C)N1CCN(c2ccc(Nc3ncc4cc5n(c4n3)C3(CCCC3)CNC5=O)nc2)CC1 [Compound 35] | 1000 to 100000 | 
22 | CC(C)CN1CCN(c2ccc(Nc3ncc4cc5n(c4n3)C3(CCCC3)CNC5=O)nc2)CC1 [Compound 36] | 1000 to 100000 | 
23 | CC1CN(c2ccc(Nc3ncc4cc5n(c4n3)C3(CCCC3)CNC5=O)nc2)CC(C)O1 (centres unmarked) [Compound 37] | 1000 to 100000 | 
24 | O=C1NCC2(CCCC2)n2c1cc1cnc(Nc3ccc(N4CCCCC4)cn3)nc12 [Compound 38] | 1000 to 100000 | 
25 | O=C1NCC2(CCCC2)n2c1cc1cnc(Nc3ccc(N4CCC(N5CCOCC5)CC4)cn3)nc12 [Compound 39] | 1000 to 100000 | 
26 | O=C1NCC2(CCCC2)n2c1cc1cnc(Nc3ccc(N4CCC(N5CCCCC5)CC4)cn3)nc12 [Compound 40] | 1000 to 100000 | 
27 | O=C1NCC2(CCCC2)n2c1cc1cnc(Nc3ccc(N4CCSCC4)cn3)nc12 [Compound 41] | 1000 to 100000 | 
28 | CC(C)CC1CNC(=O)c2cc3cnc(Nc4ccc(N5CCNCC5)cn4)nc3n21 (centres unmarked) [Compound 46] | 1000 to 100000 | 
